34 compounds from ChEMBL document CHEMBL1156829 (Proc Natl Acad Sci U S A, 2008) can be followed below.

Data set [1] has as its system Plasmodium falciparum. In words: NOVARTIS: Inhibition of Plasmodium falciparum W2 (drug-resistant) proliferation in erythrocyte-based infection assay. It counts as functional, organism-based. To be noted: read-out: EC50.
The test system of data set [2] is Plasmodium falciparum. In words: NOVARTIS: Inhibition of Plasmodium falciparum 3D7 (drug-susceptible) proliferation in erythrocyte-based infection assay. It counts as functional, organism-based.
Data set [3] is described as follows: NOVARTIS: Cytotoxicity against human hepatocellular carcinoma cell line (Huh7). The settings on record: Huh7 cells (hepatocellular carcinoma cell line). It counts as toxicity, cell-based, Huh-7.

Values joined by “and” are separate entries in the source; they are usually repeats but may differ in a detail not shown here. Identical values can stand only once. Some results are limits rather than exact numbers.

A word on the EC50: it is the concentration at which the effect is half-maximal. Consider `C=C[C@H]1C[N@]2CC[C@H]1C[C@H]2[C@H](O)c1ccnc2ccc(OC)cc12`, for which the 50% effective concentration (EC50) in the data set with Plasmodium falciparum [1] (Plasmodium falciparum, W2) came to 793 nM; with Plasmodium falciparum [2] (Plasmodium falciparum, 3D7), 518 nM.
A word on the CC50: it is the concentration at which the toxic effect on the cells reaches its halfway point. Take `CN[C@@H]1CC2O[C@@](C)([C@@H]1OC)n1c3ccccc3c3c4c(c5c6ccccc6n2c5c31)C(=O)NC4`: the CC50 in data set [3] is 355 nM.
In the case of `CCc1nc(N)nc(N)c1-c1ccccc1`, the EC50 was more than 1250 nM with Plasmodium falciparum [1] (Plasmodium falciparum, W2) and 1550 nM in the data set with Plasmodium falciparum [2] (Plasmodium falciparum, 3D7).
`CN(C)c1ccc(/C=C2/SC(=Nc3ccccc3Cl)NC2=O)cc1`: the concentration giving a half-maximal response (EC50) in the data set on Plasmodium falciparum [1] was > 512 nM and 1410 nM; in the data set with Plasmodium falciparum [2] it was 713 nM; with Plasmodium falciparum [2] (Plasmodium falciparum, 3D7), more than 1250 nM.
For `Cc1ccc(Nc2nc(-c3ccccn3)cs2)cc1`, the EC50 with Plasmodium falciparum [1] (Plasmodium falciparum, W2) is 368 nM; with Plasmodium falciparum [2] (Plasmodium falciparum, 3D7) it was 407 nM.
Regarding `COc1cccc(NC(=O)C2C3C=CC4(O3)C2C(=O)N(CC2COc3ccccc3O2)C4C(=O)NC2CCCCC2)c1` (stereo not drawn), the half-maximal effective concentration (EC50) in the data set with Plasmodium falciparum [1] (Plasmodium falciparum, W2) was more than 53.7 nM; in the data set with Plasmodium falciparum [2] (Plasmodium falciparum, 3D7), more than 1250 nM.
As for `CCOC(=O)CC(C)(O)P(=O)(OC)OC` (stereo not drawn), the 50% effective concentration (EC50) is more than 1250 nM in the data set with Plasmodium falciparum [1] (Plasmodium falciparum, W2) and more than 1010 nM in the data set with Plasmodium falciparum [2] (Plasmodium falciparum, 3D7).
The corresponding values for `CCCCNc1nc(NC(C)(C)C)nc(NC(C)(C)C)n1` are 804 nM and 2160 nM.
As to `CNc1nc(NN=Cc2cc([N+](=O)[O-])ccc2O)nc(Nc2cccc(C(F)(F)F)c2)n1`, the EC50 is more than 1660 nM in the data set with Plasmodium falciparum [1] (Plasmodium falciparum, W2) and 1860 nM with Plasmodium falciparum [2] (Plasmodium falciparum, 3D7).
In the case of `CN(C=Cc1sc2ccc3ccccc3c2[n+]1C)c1ccccc1`, the EC50 stood at 909 nM in the data set with Plasmodium falciparum [1] and 553 nM in the data set on Plasmodium falciparum [2].
Take `O=[N+]([O-])c1ccc(C2OC3C(c4ccc(Cl)cc4)=Nc4ccccc4N3C2c2ccc([N+](=O)[O-])cc2)cc1` (stereo not drawn): the half-maximal effective concentration (EC50) in the data set with Plasmodium falciparum [1] (Plasmodium falciparum, W2) was 709 nM; in the data set on Plasmodium falciparum [2] (Plasmodium falciparum, 3D7), more than 1250 nM.
For `O=C(CCCn1c2ccccc2c(=O)c2ccccc21)NCc1ccc(F)cc1`, the EC50 is 1100 nM with Plasmodium falciparum [1] (Plasmodium falciparum, W2) and 1110 nM in the data set with Plasmodium falciparum [2] (Plasmodium falciparum, 3D7).
Turning to `COc1ccc(C2C(C(=O)c3ccc(C)cc3)=C(O)C(=O)N2CCN2CCOCC2)c(OC)c1` (stereo not drawn), the 50% effective concentration (EC50) with Plasmodium falciparum [1] (Plasmodium falciparum, W2) is more than 1250 nM; in the data set with Plasmodium falciparum [2] (Plasmodium falciparum, 3D7) it was more than 50 nM.
Take `Cc1c(Br)c([N+](=O)[O-])nn1CC(=O)NC(C)c1ccccc1` (stereo not drawn): the half-maximal effective concentration (EC50) in the data set with Plasmodium falciparum [1] (Plasmodium falciparum, W2) was more than 948 nM; in the data set on Plasmodium falciparum [2] (Plasmodium falciparum, 3D7), more than 1250 nM.
For `CCC(C)NC(=O)c1nn(-c2ccc(Cl)cc2)c(=O)c2ccccc12` (stereo not drawn), the EC50 in the data set on Plasmodium falciparum [1] (Plasmodium falciparum, W2) was found to be 696 nM; in the data set with Plasmodium falciparum [2] (Plasmodium falciparum, 3D7) it was 285 nM.
The like results for `Cc1cc2cc3c(cc2c(C)n1)c1ccccc1n3C` were, in that order, 1100 nM and 1260 nM.
`CN(C)c1ccc(/C=C2\SC(=N)N(c3nccs3)C2=O)cc1`: the EC50 in the data set with Plasmodium falciparum [1] (Plasmodium falciparum, W2) is 307 nM; with Plasmodium falciparum [2] (Plasmodium falciparum, 3D7), 223 nM.
The corresponding values for `CC(=O)N1CCc2cc(Br)cc(S(=O)(=O)N(CC(C)C)CC(C)C)c21` are 270 nM and 1220 nM.
On to `CCN1C=Cc2ccccc2/C1=C\c1ccc2ccccc2[n+]1CC`, for which the EC50 in the data set on Plasmodium falciparum [1] (Plasmodium falciparum, W2) is 294 nM; with Plasmodium falciparum [2] (Plasmodium falciparum, 3D7), 670 nM.
The corresponding values for `CCCCN(CCCC)c1nc(=O)cc(-c2ccc(Cl)cc2)o1` are 636 nM and 810 nM.
Turning to `CCCCOc1ccc(/C=C(/C#N)c2nc(-c3ccc(-c4ccccc4)cc3)cs2)cc1`, the EC50 with Plasmodium falciparum [1] (Plasmodium falciparum, W2) was more than 774 nM; in the data set with Plasmodium falciparum [2] (Plasmodium falciparum, 3D7), more than 1250 nM.
Regarding `Oc1ccccc1CNC(Cc1ccccc1)C(O)(c1ccccc1)c1ccccc1` (stereo not drawn), the half-maximal effective concentration (EC50) in the data set with Plasmodium falciparum [1] (Plasmodium falciparum, W2) was found to be 27.6 nM; in the data set with Plasmodium falciparum [2] (Plasmodium falciparum, 3D7), 203 nM.
In the case of `O=C(Cn1ccc(=NCc2ccccc2)cc1)c1cccc(Br)c1`, the EC50 in the data set with Plasmodium falciparum [1] (Plasmodium falciparum, W2) was more than 110 nM; in the data set on Plasmodium falciparum [2] (Plasmodium falciparum, 3D7), more than 1390 nM.
The corresponding values for `CCCOC(=O)c1c(NC(=O)c2c(I)cnn2C)sc2c1CCCCC2` are more than 1250 nM and 1240 nM.
For the compound `CC(C)CC[n+]1ccccc1C=Cc1ccc(N(C)C)cc1`, the EC50 in the data set with Plasmodium falciparum [1] came out at 548 nM; with Plasmodium falciparum [2], 747 nM.
With `O=C(NC(=S)Nc1ccc(-c2nc3ccccc3s2)cc1)c1ccc(S(=O)(=O)N2CCCC2)cc1`, the EC50 is more than 1590 nM with Plasmodium falciparum [1] (Plasmodium falciparum, W2) and 2050 nM in the data set on Plasmodium falciparum [2] (Plasmodium falciparum, 3D7).
As for `O=C1/C(=C/c2ccccc2)SC(=Nc2ccccc2)N1C1CCCCC1`, the EC50 with Plasmodium falciparum [1] (Plasmodium falciparum, W2) was more than 1250 nM; with Plasmodium falciparum [2] (Plasmodium falciparum, 3D7), 1200 nM.
In the case of `CCC(=O)Nc1ccc(C(=O)NN=Cc2cc([N+](=O)[O-])ccc2O)cc1`, the EC50 in the data set on Plasmodium falciparum [1] (Plasmodium falciparum, W2) was 1540 nM; in the data set with Plasmodium falciparum [2] (Plasmodium falciparum, 3D7), more than 1250 nM.
For the compound `CC12C(=O)N(c3cccc(C(=O)O)c3)C(=O)C1C1c3ccccc3C2c2ccccc21` (stereo not drawn), the EC50 in the data set on Plasmodium falciparum [1] (Plasmodium falciparum, W2) was more than 1250 nM; in the data set with Plasmodium falciparum [2] (Plasmodium falciparum, 3D7), more than 652 nM.
`COc1ccc(/C=C2\SC(=S)N(CC(=O)NNC(=O)c3ccncc3)C2=O)cc1`: the EC50 in the data set with Plasmodium falciparum [1] (Plasmodium falciparum, W2) is 2280 nM; with Plasmodium falciparum [2] (Plasmodium falciparum, 3D7), more than 1520 nM.
Turning to `CCN1/C(=C/c2sc3ccc(-c4ccccc4)cc3[n+]2CCO)C=Cc2cc(OC)ccc21`, the half-maximal effective concentration (EC50) in the data set with Plasmodium falciparum [1] (Plasmodium falciparum, W2) was found to be 945 nM; in the data set on Plasmodium falciparum [2] (Plasmodium falciparum, 3D7), 487 nM.
In the case of `CC[n+]1ccc(C=Cc2ccc(N(C)C)cc2)cc1`, the EC50 was found to be 724 nM with Plasmodium falciparum [1] and 681 nM in the data set on Plasmodium falciparum [2] (Plasmodium falciparum, 3D7).
With `N#Cc1c2c(c(N3CCN(C(c4ccccc4)c4ccccc4)CC3)n3c1nc1ccccc13)CCC2`, the EC50 in the data set on Plasmodium falciparum [1] (Plasmodium falciparum, W2) was 2270 nM; in the data set on Plasmodium falciparum [2] (Plasmodium falciparum, 3D7), more than 1250 nM.
As to `O=C(/C=C/c1ccccc1)Nc1ccc(C(=O)OC[C@@H]2CCCN3CCCC[C@H]23)cc1`, the 50% effective concentration (EC50) in the data set on Plasmodium falciparum [1] (Plasmodium falciparum, W2) was more than 1250 nM; in the data set with Plasmodium falciparum [2] (Plasmodium falciparum, 3D7), 1440 nM.
